In patent US4822790A, “1-Sulfo-2-oxoazetidine derivatives and their production” (Takeda Chemical Industries, Ltd., priority 1980, dated 1989):

Key:
Assay type in all cases: cell-based
[1] = system: Staphylococcus aureus FDA209P; experiment: Antibacterial test (MIC), Staphylococcus aureus FDA209P
Description: (§1) The following is media and compounds employed in the antibacterial test.
(§2) TSA=Trypticase soy agar [Baltimore Biologicals (U.S.A.)]
(§3) B-TSA=Blood trypticase soy agar

[2] = system: Staphylococcus aureus 308A-1; experiment: Antibacterial test (MIC), Staphylococcus aureus 308A-1; conditions: medium TSA
Description: as §1, §2, §3

[3] = system: Staphylococcus aureus 1840; experiment: Antibacterial test (MIC), Staphylococcus aureus 1840; conditions: medium TSA
Description: as §1, §2, §3

[4] = system: Escherichia coli NIHJ JC-2; experiment: Antibacterial test (MIC), Escherichia coli NIHJ JC-2; conditions: medium TSA
Description: as §1, §2, §3

Escherichia coli 0-111 = experiment: Antibacterial test (MIC), Escherichia coli 0-111; conditions: medium TSA
Description: as §1, §2, §3

Escherichia coli T-7 = experiment: Antibacterial test (MIC), Escherichia coli T-7; conditions: medium TSA
Description: as §1, §2, §3

[5] = system: Citrobacter freundii IFO 12681; experiment: Antibacterial test (MIC), Citrobacter freundii IFO 12681; conditions: medium TSA
Description: as §1, §2, §3

Klebsiella pneumoniae DT = experiment: Antibacterial test (MIC), Klebsiella pneumoniae DT; conditions: medium TSA
Description: as §1, §2, §3

[6] = system: Enterobacter cloacae IFO 12937; experiment: Antibacterial test (MIC), Enterobacter cloacae IFO 12937; conditions: medium TSA
Description: as §1, §2, §3

[7] = system: Serratia marcescens IFO 12648; experiment: Antibacterial test (MIC), Serratia marcescens IFO 12648; conditions: medium TSA
Description: as §1, §2, §3

[8] = system: Proteus vulgaris IFO 3988; experiment: Antibacterial test (MIC), Proteus vulgaris IFO 3988; conditions: medium TSA
Description: as §1, §2, §3

[9] = system: Proteus mirabilis IFO 3849; experiment: Antibacterial test (MIC), Proteus mirabilis IFO 3849; conditions: medium TSA
Description: as §1, §2, §3

[10] = system: Proteus morganii IFO 3168; experiment: Antibacterial test (MIC), Proteus morganii IFO 3168; conditions: medium TSA
Description: as §1, §2, §3

[11] = system: Pseudomonas aeruginosa IFO 3455; experiment: Antibacterial test (MIC), Pseudomonas aeruginosa IFO 3455; conditions: medium TSA
Description: as §1, §2, §3

[12] = system: Pseudomonas aeruginosa U 31; experiment: Antibacterial test (MIC), Pseudomonas aeruginosa U 31; conditions: medium TSA
Description: as §1, §2, §3

[13] = system: Acinetobacter calcoaceticus IFO 13006; experiment: Antibacterial test (MIC), Acinetobacter calcoaceticus IFO 13006; conditions: medium TSA
Description: as §1, §2, §3

Candida albicans TA = experiment: Antibacterial test (MIC), Candida albicans TA; conditions: medium TSA
Description: as §1, §2, §3

[14] = system: Streptococcus pyogenes E-14; experiment: Antibacterial test (MIC), Streptococcus pyogenes E-14; conditions: medium B-TSA
Description: as §1, §2, §3

[15] = system: Streptococcus pyogenes S-8; experiment: Antibacterial test (MIC), Streptococcus pyogenes S-8; conditions: medium B-TSA
Description: as §1, §2, §3

[16] = system: Streptococcus mitis America; experiment: Antibacterial test (MIC), Streptococcus mitis America; conditions: medium B-TSA
Description: as §1, §2, §3

[17] = system: Streptococcus faecium IFO 3128; experiment: Antibacterial test (MIC), Streptococcus faecium IFO 3128; conditions: medium B-TSA
Description: as §1, §2, §3

[18] = system: Streptococcus pneumoniae Type I; experiment: Antibacterial test (MIC), Streptococcus pneumoniae Type I; conditions: medium B-TSA
Description: as §1, §2, §3

[19] = system: Corynebacterium diphtheriae Toronto; experiment: Antibacterial test (MIC), Corynebacterium diphtheriae Toronto; conditions: medium B-TSA
Description: as §1, §2, §3

[20] = system: Bordetella bronchiseptica Sagami; experiment: Antibacterial test (MIC), Bordetella bronchiseptica Sagami; conditions: medium B-TSA
Description: as §1, §2, §3

Row | SMILES | Minimum inhibitory concentration (MIC) ([1]; medium B-TSA) [µg/mL] | Minimum inhibitory concentration (MIC) ([1]; medium TSA) [µg/mL] | Minimum inhibitory concentration (MIC) [2] [µg/mL] | Minimum inhibitory concentration (MIC) [3] [µg/mL] | Minimum inhibitory concentration (MIC) [4] [µg/mL] | Minimum inhibitory concentration (MIC) (Escherichia coli 0-111) [µg/mL] | Minimum inhibitory concentration (MIC) (Escherichia coli T-7) [µg/mL] | Minimum inhibitory concentration (MIC) [5] [µg/mL] | Minimum inhibitory concentration (MIC) (Klebsiella pneumoniae DT) [µg/mL] | Minimum inhibitory concentration (MIC) [6] [µg/mL] | Minimum inhibitory concentration (MIC) [7] [µg/mL] | Minimum inhibitory concentration (MIC) [8] [µg/mL] | Minimum inhibitory concentration (MIC) [9] [µg/mL] | Minimum inhibitory concentration (MIC) [10] [µg/mL] | Minimum inhibitory concentration (MIC) [11] [µg/mL] | Minimum inhibitory concentration (MIC) [12] [µg/mL] | Minimum inhibitory concentration (MIC) [13] [µg/mL] | Minimum inhibitory concentration (MIC) (Candida albicans TA) [µg/mL] | Minimum inhibitory concentration (MIC) [14] [µg/mL] | Minimum inhibitory concentration (MIC) [15] [µg/mL] | also measured
1 | O=C(NC1CN(S(=O)(=O)[O-])C1=O)C(NC(=O)N1CCN(N=Cc2ccco2)C1=O)c1cccs1.[Na+] (centres unmarked) [Compound L, Sodium 3-[2-[(2-oxo-3-furfurylideneaminoimidazolidin-1-yl)-carboxamido]-2-thienylacetamido]-2-oxoazetidine-1-sulfonate] | 6.25 | 6.25 | 3.13 | 25 | 1.56 | < 0.1 | > 100 | 1.56 | < 0.1 | 25 | 1.56 | 0.2 | 0.78 | 12.5 | 3.13 | > 100 | 50 | > 100 | 0.78 | 0.78 | Minimum inhibitory concentration (MIC) [16]: 6.25 µg/mL; Minimum inhibitory concentration (MIC) [17]: > 100 µg/mL; Minimum inhibitory concentration (MIC) [18]: 1.56 µg/mL; Minimum inhibitory concentration (MIC) [19]: 1.56 µg/mL; Minimum inhibitory concentration (MIC) [20]: > 100 µg/mL
2 | CCN1CCN(C(=O)NC(C(=O)NC2CN(S(=O)(=O)[O-])C2=O)c2cccs2)C(=O)C1=O.[Na+] (racemic) [Compound E, Sodium 3-[DL-2-(4-ethyl-2,3-dioxo-1-piperazinocarboxamido)-2-thienylacetamido]-2-oxoazetidine-1-sulfonate] | 6.25 | 6.25 | 6.25 | 25 | 1.56 | 0.2 | > 100 | 3.13 | 0.78 | 3.13 | 3.13 | < 0.1 | 0.78 | 12.5 | 3.13 | > 100 | 50 | > 100 | 1.56 | 3.13 | Minimum inhibitory concentration (MIC) [16]: 25 µg/mL; Minimum inhibitory concentration (MIC) [17]: > 100 µg/mL; Minimum inhibitory concentration (MIC) [18]: 3.13 µg/mL; Minimum inhibitory concentration (MIC) [19]: 0.39 µg/mL; Minimum inhibitory concentration (MIC) [20]: > 100 µg/mL
